Laboratory results reported in patent publication US11739350B2 (priority 2018, dated 2023).

Test system: HPAFII tumours
Design: species or system SCID mice
Details: mouse, in vivo, ip

GSK126
tumor volumes: 1609.3 mm^3
